Measured values as given in patent US11230526B1, “Cylcoalkenyl derivatives useful as agonists of the GPR120 and/or GPR40 receptors” (Janssen Pharmaceutica NV, priority 2018, dated 2022).

Tests used:
Type in all cases: cell-based
[1] = target: T1, short form of the GPR120 receptor (Homo sapiens, UniProt Q5NUL3); assay: Human GPR120 DiscoveRx PathHunter Beta-Arrestin assay, Procedure β-arrestin B
T1 construct: host or cells: PathHunter CHO-K1 GPR120S β-Arrestin Cell Line
From the text: Human GPR120 DiscoveRx PathHunter® Beta-Arrestin Assay Assay Principle:
The binding of an agonist (medium/long chain fatty acids or small molecule agonists) to the G-protein-coupled receptor GPR120 activates phospholipase C, leading to release of intracellular Ca^+2 through the generation of inositol 1,4,5-trisphosphate (InsP3 or IP3). GPR120 activation can also trigger intracellular signaling via recruitment of Beta-Arrestin. In the present method, agonist-induced activation of the human GPR120 receptor is monitored through the use of PathHunter® CHO-K1 GPR120 Beta-Arrestin Cell Line engineered by DiscoveRx, as detailed below. The cell lines are designed to co-express both the ProLink/Enzyme Donor (PK)-tagged GPCR and the Enzyme […] (EA)-tagged Beta-Arrestin fusion proteins. Upon GPR120 receptor stimulation/activation, the EA-tagged Beta-Arrestin portion is translocated to the tagged receptor, where the two enzyme fragments are brought within close proximity. Under these conditions, these fragments can interact and form an active Beta-gal enzyme complex through Enzyme Fragment Complementation (EFC). This active Beta-gal complex can enzymatically hydrolyse the substrate to produce a detectable light signal; therefore, activation as a function of agonist concentration can be expressed as an EC50 value to determine relative compound activities. This in vitro assay therefore serves to assess compound agonist activity of the GPR120.
In Procedure β-arrestin B the cells used were PathHunter® CHO-K1 GPR120S β-Arrestin Cell Line, expressing the short form of the GPR120 receptor (Accession #[…]), with 5000 cells/well.
The selected CHO-K1 GPR120 β-Arrestin cells were cultured in Ham's F12 media supplemented with 10% fetal bovine serum (FBS), 1% Glutamine, 1×p/s, 800 μg/mL G418 and 300 μg/mL Hygromycin B (for selection). Cell stocks were maintained and grown in a sub-confluent state using standard cell culture procedures. The day before the experiment, the cells were harvested with non-enzymatic cell dissociation buffer and re-suspended in complete growth media at the desired concentration. A Corning 384-plate was then seeded with the proper number of cells in a volume of 25 μL, per well. The seeded plates were incubated overnight at 37° C.
On the day of the experiment, the Assay Buffer containing (a) HBSS with Ca^++ and Mg^++, (b) 20 mM HEPES, and (c) 0.1% BSA stabilizer (pH 7.4) was prepared. The growth medium was gently removed from the cell plates and 20 μL of Assay Buffer added to each well. The plate was then incubated at 37° C. for 60 min. Test compounds were serially diluted in Assay Buffer to desired concentrations (more particularly to one or more of the following μM concentrations: 25, 12.5, 6.25, 3.12, 1.56, 0.78, 0.39, 0.19, 0.10, 0.05, 0.02, 0.01). Five μL of compound dilution was then added to each well and the plate incubated at 37° C. for 90 min. The detection reagents were prepared according to the manufacture's instruction. Twelve μL of the detection reagents were added to each well and the plate incubated at room temperature for 60 min.
The plates were read on an EnVision instrument, using Protocol name: Luminescence, Plate type: 384 Costar, Measurement height: 3 mm, Measurement time: 1 s, Aperture: 384 Plate aperture. The % Activity relative to the positive control was calculated using the following equation:
The % Activity values were plotted versus the concentration of test compound and fitted to a sigmoidal dose-response curve with a Hill slope=1 (fixed value) using nonlinear regression with GraphPad Prism 5.0 to calculate the EC50 values. The Fitting Equation was: Y=Bottom+(Top-Bottom)/(1+10^((Log EC50−X)*HillSlope)), where X is the log of the concentration and Y is the response.

Human GPR120 short form [2] = target: T2, Human GPR120 short form (Homo sapiens, UniProt Q5NUL3); assay: Human GPR120 calcium flux assay, Procedure Calcium B (4200 cells/well)
T2 construct: expressed in transfected cells
T2 sequence (Q5NUL3 1-361): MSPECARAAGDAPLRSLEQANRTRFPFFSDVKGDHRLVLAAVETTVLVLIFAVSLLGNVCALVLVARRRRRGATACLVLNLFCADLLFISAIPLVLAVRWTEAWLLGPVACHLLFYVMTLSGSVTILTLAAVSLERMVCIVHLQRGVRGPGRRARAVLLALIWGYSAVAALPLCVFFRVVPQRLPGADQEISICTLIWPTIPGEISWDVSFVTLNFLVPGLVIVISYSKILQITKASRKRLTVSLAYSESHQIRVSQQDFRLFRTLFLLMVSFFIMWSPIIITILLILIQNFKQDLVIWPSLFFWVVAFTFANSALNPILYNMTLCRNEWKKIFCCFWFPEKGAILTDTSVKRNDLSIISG
How it was run: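 Agonist EC50 came from a four-parameter fit of RFU (Fmax−Fmin) read over 300 s on FLIPR. Cells were HEK293 stably transfected with human GPR120 (NM_001195755.1) at 4200 per well, serum-starved 1 h and loaded with Fluo-4 NW dye with probenecid before ligand addition.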

Human GPR120 short form [3] = target: T2, Human GPR120 short form; assay: Human GPR120 calcium flux assay, Procedure Calcium A (2500 cells/well)
How it was run: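 HEK293 cells stably expressing human GPR120 short isoform (NM_001195755.1), 2500 cells/well, serum-starved 1 h at 37 °C and loaded with Fluo-4 NW plus probenecid. FLIPR fluorescence read for 300 s after compound addition; response = Fmax−Fmin. EC50 from four-parameter concentration–response fit.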

human GPR40 = target: T3, human GPR40 (Homo sapiens, UniProt O14842); assay: GPR40 calcium flux assay, human GPR40; conditions: HEK293 cells stably expressing GPR40; table does not say human or rat
T3 construct: expressed in transfected cells
T3 sequence (O14842 whole entry): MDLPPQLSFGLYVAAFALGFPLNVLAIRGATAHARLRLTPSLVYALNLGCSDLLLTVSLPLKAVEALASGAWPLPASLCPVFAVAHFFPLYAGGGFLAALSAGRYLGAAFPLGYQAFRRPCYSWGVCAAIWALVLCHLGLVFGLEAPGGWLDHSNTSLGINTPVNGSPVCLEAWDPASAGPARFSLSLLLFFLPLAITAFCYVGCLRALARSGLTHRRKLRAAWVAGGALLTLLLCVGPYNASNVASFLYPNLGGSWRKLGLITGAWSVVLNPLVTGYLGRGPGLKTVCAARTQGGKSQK
How it was run: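 Cells preincubated 1 h at 37° C. in HBSS, 20 mM HEPES, 0.1% BSA, then Fluo 8 calcium dye 30 min at 37° C. and 15 min at room temperature.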

[4] = target: T4, long form of human GPR120 (Homo sapiens, UniProt Q5NUL3); assay: Human GPR120 DiscoveRx PathHunter Beta-Arrestin assay, Procedure β-arrestin A
T4 construct: host or cells: PathHunter CHO-K1 GPR120 β-Arrestin Cell Line
T4 sequence (Q5NUL3 1-377 isoform Q5NUL3-1): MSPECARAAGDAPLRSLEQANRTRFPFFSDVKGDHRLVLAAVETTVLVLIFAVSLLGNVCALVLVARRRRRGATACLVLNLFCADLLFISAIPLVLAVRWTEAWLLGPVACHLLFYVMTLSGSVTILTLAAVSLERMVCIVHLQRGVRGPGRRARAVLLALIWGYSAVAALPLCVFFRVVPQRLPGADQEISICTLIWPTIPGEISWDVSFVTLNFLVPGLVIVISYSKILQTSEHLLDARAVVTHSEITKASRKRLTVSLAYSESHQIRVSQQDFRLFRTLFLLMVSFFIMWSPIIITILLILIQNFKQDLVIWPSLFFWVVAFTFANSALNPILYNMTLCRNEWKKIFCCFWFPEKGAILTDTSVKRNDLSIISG
T4 sequence (P32121 whole entry partner): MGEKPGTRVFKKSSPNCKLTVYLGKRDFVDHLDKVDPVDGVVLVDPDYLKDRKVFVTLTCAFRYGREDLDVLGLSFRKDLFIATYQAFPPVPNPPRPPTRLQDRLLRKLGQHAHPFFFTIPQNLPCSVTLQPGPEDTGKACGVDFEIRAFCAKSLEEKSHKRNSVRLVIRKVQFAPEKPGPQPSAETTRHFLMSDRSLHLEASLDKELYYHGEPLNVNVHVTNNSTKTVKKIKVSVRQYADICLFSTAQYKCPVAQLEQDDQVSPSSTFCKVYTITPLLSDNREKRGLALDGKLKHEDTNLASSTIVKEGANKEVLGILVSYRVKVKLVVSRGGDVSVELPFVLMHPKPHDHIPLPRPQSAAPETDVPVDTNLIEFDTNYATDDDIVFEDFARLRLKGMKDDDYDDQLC
How it was run: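 PathHunter CHO-K1 cells expressing long-form human GPR120 (3000/well) were seeded overnight. They were then preincubated 60 min in HBSS with 20 mM HEPES and 0.1% BSA, pH 7.4, and exposed to compound for 90 min at 37 °C. β-Arrestin recruitment was read as β-gal complementation luminescence. EC50 came from % activity versus positive control, Hill slope fixed at 1.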

T1 sequence (P32121 whole entry partner, one chain of several): as the sequence (P32121 whole entry partner) above

Row | EC50 [1] [nM] | EC50 (Human GPR120 short form [2]) [nM] | EC50 (Human GPR120 short form [3]) [nM] | EC50 (human GPR40) [nM] | EC50 [4] [nM] | Compound
1 | 190 | 110 | – | > 5000 | 256 | Cc1c(CCC(=O)O)ccc(OCC2=C(c3ccc(F)c(F)c3)CCC2)c1C [Compound 117]
2 | 717 | 185 | 576 | – | – | CSc1ccc(C2=C(COc3ccc(CCC(=O)O)c(C)c3C)CCCC2)cc1 [Compound 492, 3-[2,3-dimethyl-4-[[2-(4-methylsulfanylphenyl)cyclohexen-1-yl]methoxy]phenyl]Propanoic Acid]
3 | 385 | 79 | 234 | – | – | Cc1c(CCC(=O)O)ccc(OCC2=C(c3ccc(F)cc3)CCCC2)c1C [Compound 480, 3-[4-[[2-(4-fluorophenyl)cyclohexen-1-yl]methoxy]-2,3-dimethyl-phenyl]Propanoic Acid]
4 | 126 | 91 | 406 | – | – | Cc1c(CCC(=O)O)ccc(OCC2=C(c3cccs3)CCCC2)c1C [Compound 482, 3-[2,3-dimethyl-4-[[2-(2-thienyl)cyclohexen-1-yl]methoxy]phenyl]Propanoic Acid]
5 | 478 | 66 | 462 | – | – | Cc1ccc(C2=C(COc3ccc(CCC(=O)O)c(C)c3C)CCCC2)cc1 [Compound 462, 3-[2,3-dimethyl-4-[[2-(p-tolyl)cyclohexen-1-yl]methoxy]phenyl]Propanoic Acid]
6 | 475 | 134 | 250 | – | – | Cc1c(CCC(=O)O)ccc(OCC2=C(c3ccc(Br)cc3)CCCC2)c1C [Compound 481, 3-[4-[[2-(4-bromophenyl)cyclohexen-1-yl]methoxy]-2,3-dimethyl-phenyl]Propanoic Acid]
7 | 625 | 385 | 1010 | – | – | Cc1c(CCC(=O)O)ccc(OCC2=C(c3ccc(C(F)(F)F)cc3)CCCC2)c1C [Compound 460, 3-[2,3-dimethyl-4-[[2-[4-(trifluoromethyl)phenyl]cyclohexen-1-yl]methoxy]phenyl]Propanoic Acid]
8 | 41 | 34 | – | > 5000 | 87 | O=C(O)CCc1ccc(OCC2=C(c3ccc(Cl)cc3)CCC2)c(I)c1 [Compound 130, 3-[3-iodo-4-[[2-(4-chlorophenyl)cyclopenten-1-yl]methoxy]phenyl]Propanoic Acid]
9 | 47 | 21 | – | > 5000 | – | O=C(O)CCc1ccc(OCC2=C(c3ccc(Cl)cc3)CCC2)c(Br)c1 [Compound 129, 3-[3-bromo-4-[[2-(4-chlorophenyl)cyclopenten-1-yl]methoxy]phenyl]Propanoic Acid]
10 | 45 | 10 | – | > 5000 | 35 | [2H]C(C(=O)O)C([2H])c1ccc(OCC2=C(c3ccc(Cl)cc3)CCC2)c(C)c1 (centres unmarked) [Compound 126-D, 3-(4-((2-(4-chlorophenyl)cyclopent-1-en-1-yl)methoxy)-3-methylphenyl)Propanoic-2,3-d2 Acid]

Second part, the molecule before the results:

Row | Compound | EC50 [1] [nM] | EC50 (Human GPR120 short form [2]) [nM] | EC50 (Human GPR120 short form [3]) [nM] | EC50 (human GPR40) [nM] | EC50 [4] [nM]
11 | Cc1c(CCC(=O)O)ccc(OCC2=C(c3ccc(Br)cc3)CCC2)c1C [Compound 56, 3-[4-[[2-(4-bromophenyl)cyclopenten-1-yl]methoxy]-2,3-dimethyl-phenyl]Propanoic Acid] | 85 | 37 | 324 | – | –
12 | CSc1ccc(C2=C(COc3ccc(CCC(=O)O)c(C)c3C)CCC2)cc1 [Compound 50, 3-[2,3-dimethyl-4-[[2-(4-methylsulfanylphenyl)cyclopenten-1-yl]methoxy]phenyl]Propanoic Acid] | 709 | 183 | 409 | – | –
13 | Cc1c(CCC(=O)O)ccc(OCC2=C(c3ccc(C(F)(F)F)cc3)CCC2)c1C [Compound 75, 3-[2,3-dimethyl-4-[[2-[4-(trifluoromethyl)phenyl]cyclopenten-1-yl]methoxy]phenyl]Propanoic Acid] | 171 | 195 | 591 | – | –
14 | Cc1c(CCC(=O)O)ccc(OCC2=C(c3ccc(I)cc3)CCC2)c1C [Compound 57, 3-[4-[[2-(4-iodophenyl)cyclopenten-1-yl]methoxy]-2,3-dimethyl-phenyl]Propanoic Acid] | 258 | 50 | 527 | – | –
15 | O=C(O)CCc1ccc(OCC2=C(c3ccc(Cl)cc3)CCC2C(F)(F)F)c(F)c1F (centres unmarked) [Compound 32, 3-[4-[[2-(4-chlorophenyl)-5-(trifluoromethyl)cyclopenten-1-yl]methoxy]-2,3-difluoro-phenyl]Propanoic Acid] | 203 | 311 | – | > 5000 | 341
16 | O=C(O)CCc1cc(F)c(OCC2=C(c3ccc(Cl)cc3)CCC2C(F)(F)F)c(F)c1 (centres unmarked) [Compound 33, 3-[4-[[2-(4-chlorophenyl)-5-(trifluoromethyl)cyclopenten-1-yl]methoxy]-3,5-difluoro-phenyl]Propanoic Acid] | 180 | 288 | – | > 5000 | 312
17 | Cc1c(CCC(=O)O)ccc(OCC2=C(c3ccc(Cl)cc3)CCC2C(F)(F)F)c1C (centres unmarked) [Compound 12, 3-[4-[[2-(4-chlorophenyl)-5-(trifluoromethyl)cyclopenten-1-yl]methoxy]-2,3-dimethyl-phenyl]Propanoic Acid] | 93 | 481 | – | > 5000 | –
18 | Cc1c(CCC(=O)O)ccc(OCC2=C(c3ccc(C(C)C)cc3)CCC2)c1C [Compound 55, 3-[4-[[2-(4-isopropylphenyl)cyclopenten-1-yl]methoxy]-2,3-dimethyl-phenyl]Propanoic Acid] | 246 | 282 | 793 | – | –
